The values below come from PubChem BioAssay (NCI).

Common to all, as to assay: DTP human tumour cell line panel, 48 h
Assay [1] has as its system HCT-116 colon.
The test system of assay [2] is HOP-92 NSCLC.
The test system of assay [3] is HS 578T breast.
Assay [4] relates to MCF7 breast.
For assay [5], the system named is OVCAR-4 ovarian.
The subject of assay [6] is OVCAR-8 ovarian.
For assay [7], the system named is SNB-19 CNS.
The subject of assay [8] is TK-10 renal.
Assay [9] has as its system U251 CNS.
Assay [10] concerns UO-31 renal.

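1) Cells in 96-well plates. 2) Compound, 48 h, 5 concentrations. 3) Linear interpolation between surrounding doses. 4) Unreached endpoint = highest concentration. TGI denotes the concentration required for complete inhibition of growth.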

In the case of `C/C=C/C=C/c1nc(C#N)c(N)o1`, the TGI in [1], in assay [2], in [3], in assay [4], in [5] and in assay [6] was above 100 µM throughout. The TGI in assay [7], in assay [8], in assay [9] and in [10] was above 100 µM throughout.

For the molecule `Cc1c(S(=O)(=O)/N=C(\N)Nc2ccc(Cl)cc2)sc2ccc(Cl)cc12`, the TGI (usually the concentration giving total growth inhibition) worked out at 31.5 µM in [1]; 42.2 µM in assay [2]; 59 µM in assay [3]; 35.8 µM in assay [4]; 68.8 µM in [5]; 38.9 µM in [6]. For the same molecule, the TGI amounted to 57.4 µM in assay [7], 39.5 µM in assay [8], 30.3 µM in assay [9] and 35.9 µM in assay [10].

Take `O=C1CN2C(c3ccccc3)=NN(c3ccc([N+](=O)[O-])cc3)C2(c2ccccc2)c2cc(Cl)ccc2N1CC1CC1` (stereo not given): the TGI in [1], in assay [2], in [3], in assay [4], in assay [5] and in assay [6] was above 100 µM each time. In addition, the TGI in [7], in assay [8], in [9] and in [10] was above 100 µM throughout.

With `CC1CC[C@@]2(OC1)OC1C[C@H]3[C@@H]4CC[C@H]5CC(OC6OC(CO)C(OC7OC(CO)C(O)C(O)C7OC7OC(CO)C(O)C(O)C7O)C(O)C6O)CCC5(C)[C@H]4CCC3(C)C1[C@@H]2C` (stereo not given in full), the TGI in assay [1] was 7.34 µM; in assay [2] it was 11.8 µM; in assay [3], 7.44 µM; in assay [4], 2.26 µM; in assay [5], 2.72 µM; in assay [6], 14.3 µM. Also, the TGI in assay [7] was 10.3 µM; in [8], 5.36 µM; in assay [9], 2.74 µM; in [10] it was 1.94 µM.

Regarding `CCOc1cc(C2CC(c3ccc(NS(=O)(=O)c4cc([N+](=O)[O-])ccc4C)cc3)=NN2C(=O)c2ccccc2)ccc1O` (stereo not given), the TGI in assay [1] is 56.5 µM; in assay [2], 47.6 µM; in [3], above 100 µM; in assay [4] it was above 100 µM; in [5] it was above 100 µM; in assay [6], above 100 µM. Besides, the concentration for total growth inhibition (TGI) was above 100 µM in assay [7], 54.2 µM in assay [8], above 100 µM in [9] and above 100 µM in [10].

Turning to `COc1cc(C2CC(C)(Nc3ccccc3)Oc3cc4c(cc32)OCO4)cc(OC)c1OC` (stereo not given), the TGI in assay [1] is above 51.2 µM; in [2], above 100 µM; in [3], above 100 µM; in assay [4], above 51.5 µM; in assay [5], above 78.5 µM; in assay [6], above 100 µM. The TGI is above 100 µM in assay [7], above 100 µM in [8], 17.2 µM in [9] and 34.2 µM in [10].

For the molecule `CCCNC(=O)CCC(C)[C@H]1CCC2C3C(C[C@H](OC(C)=O)[C@@]21C)[C@@]1(C)CCC2(C[C@H]1C[C@H]3OC(C)=O)OOC1(CCC(C)CC1)OO2` (stereo not given in full), the TGI in assay [1] is above 100 µM; in assay [2], 1.98 µM; in [3], above 100 µM; in assay [4], above 100 µM; in assay [5], 33.9 µM; in [6], 48.3 µM. Also, the concentration for total growth inhibition (TGI) was above 100 µM in assay [7], 58.8 µM in [8], 30.6 µM in assay [9] and 2.42 µM in assay [10].

Take `Cc1ccccc1C(O)(c1nccn1C)c1nccn1C`: the TGI in assay [1], in [2], in [3], in [4], in [5] and in [6] was above 100 µM each time. For the same molecule, the TGI in [7], in assay [8], in assay [9] and in assay [10] was above 100 µM in each case.

Take `CN(C)CCCN1C(=S)N(CCCN(C)C)c2c3cc(O)ccc3nc3c([N+](=O)[O-])ccc1c23`: the TGI in assay [1] was 6.07 µM; in assay [2], 16.1 µM; in assay [3] it was 24.4 µM; in [4] it was 6.77 µM; in assay [5], 10.9 µM; in [6] it was 15 µM. The TGI is 13.9 µM in [7], 29 µM in [8], 28 µM in assay [9] and 18.7 µM in assay [10].

In the case of `NNC(=O)c1ccc[n+](CCc2ccccc2)c1`, the TGI in assay [1], in [2], in [3], in assay [4], in assay [5] and in assay [6] was above 100 µM each time. Also, the TGI in [7], in assay [8], in [9] and in [10] was above 100 µM in each case.

For the molecule `CN(C)c1nc(=NCc2ccccc2)ss1`, the TGI in [1], in assay [2], in assay [3], in [4], in assay [5] and in assay [6] was above 10 µM throughout. Besides, the TGI in assay [7], in assay [8], in assay [9] and in [10] was above 10 µM each time.

For the molecule `O=C1C[C@H](Sc2ccccc2)C2(OCCO2)[C@@H](Sc2ccccc2)C1`, the TGI amounted to 4.81 µM in assay [1]; 5.74 µM in assay [2]; 5.85 µM in [3]; 6.01 µM in assay [4]; 28.4 µM in assay [5]; 8.02 µM in [6]. The TGI in assay [7] was above 43.6 µM; in assay [8] it was 6.96 µM; in assay [9], 6.76 µM; in [10], 3.49 µM.

Turning to `COc1cc(C2SCC(=O)N2c2ccc(NC(=O)c3ccc(N4C(=O)CSC4c4cc(OC)c(OC)c(OC)c4)cc3)cc2)cc(OC)c1OC` (stereo not given), the TGI in [1] was above 100 µM; in assay [2], 79.1 µM; in assay [3], above 100 µM; in [4], above 100 µM; in assay [5], above 100 µM; in [6] it was above 100 µM. Also, the TGI in [7], in assay [8], in [9] and in assay [10] was above 100 µM throughout.

For the molecule `CN(C)c1ccc(C=C2N=C(c3ccccc3)N(c3cc(C(=O)c4ccccc4)ccc3N3C(=O)/C(=C/c4ccc(N(C)C)cc4)N=C3c3ccccc3)C2=O)cc1`, the TGI was 95.4 µM in assay [1]; above 100 µM in [2]; above 100 µM in assay [3]; above 100 µM in assay [4]; above 100 µM in assay [5]; 73.6 µM in assay [6]. For the same molecule, the TGI in assay [7] was above 100 µM; in [8] it was above 100 µM; in assay [9], 29.5 µM; in assay [10], above 100 µM.

As for `Oc1ccccc1/C=N/c1nc2cc3sc(/N=C/c4ccccc4O)nc3cc2s1`, the TGI in [1] was above 100 µM; in [2] it was above 100 µM; in [3], above 89 µM; in assay [4], above 100 µM; in [5] it was above 100 µM; in assay [6], above 100 µM. The TGI in [7], in assay [8], in [9] and in assay [10] was above 100 µM each time.

Regarding `COC(=O)[C@]12CC[C@H]3CN(C(=O)OCc4ccccc4)[C@H]([C@H]31)[C@H](c1ccco1)N2S(=O)(=O)c1ccc(C)cc1`, the TGI is 29.2 µM in assay [1]; 56.1 µM in assay [2]; above 100 µM in [3]; 42 µM in assay [4]; above 100 µM in assay [5]; above 100 µM in [6]. Besides, the TGI in [7] is above 100 µM; in [8] it was 90.2 µM; in assay [9], 71.4 µM; in assay [10], 46.6 µM.

For `CCCn1c(CN(Cc2nc3ccccc3n2CCC)Cc2nc3ccccc3n2CCC)nc2ccccc21`, the TGI is 13.6 µM in assay [1]; 13.3 µM in assay [2]; above 95.2 µM in assay [3]; above 29.2 µM in assay [4]; 26.1 µM in assay [5]; above 100 µM in [6]. Moreover, the TGI in [7] was above 100 µM; in [8] it was above 100 µM; in assay [9], above 100 µM; in assay [10], 34.3 µM.

`c1ccc2c(c1)NC(C1OC3CCCN3C1C1Nc3ccccc3S1)S2` (stereo not given): the TGI in assay [1], in [2], in assay [3], in [4], in assay [5] and in assay [6] was above 100 µM each time. In addition, the TGI in assay [7], in [8], in assay [9] and in [10] was above 100 µM in each case.

With `C(=N\NC1=NCCCN1)/c1ccc2ccccc2c1`, the TGI stood at 22.4 µM in assay [1]; 25.1 µM in [2]; 41.3 µM in assay [3]; 15.8 µM in [4]; 39.3 µM in assay [5]; 29.3 µM in assay [6]. The TGI came out at 31.8 µM in assay [7], 36.8 µM in [8], 19.8 µM in assay [9] and 23.8 µM in assay [10].

On to `CC(C)/C(Cl)=N\OC(=O)Nc1ccc(C#N)cc1`, for which the TGI was 17.1 µM in assay [1]; 2.98 µM in assay [2]; 39.8 µM in assay [3]; 22.4 µM in assay [4]; 3.24 µM in [5]; 31 µM in [6]. Moreover, the TGI came to 33.7 µM in [7], 12.9 µM in assay [8], 31.9 µM in [9] and 21.2 µM in assay [10].

With `COc1ccc(C(OCC2OC(n3cc(C)c(=O)[nH]c3=O)CC2n2cc(Cn3cc(F)c(=O)[nH]c3=O)nn2)(c2ccccc2)c2ccccc2)cc1` (stereo not given), the TGI in assay [1] was 13.2 µM; in assay [2], 19.5 µM; in [3], above 100 µM; in assay [4], 34.7 µM; in assay [5] it was 47.3 µM; in assay [6], above 100 µM. Besides, the TGI in assay [7] was 22.8 µM; in assay [8], 33.9 µM; in [9] it was 21.2 µM; in assay [10] it was 23.6 µM.

`N#CCCN(CCC#N)c1ccc(/C=C2\N=C(c3ccccc3)N(c3ccc(Cl)cc3)C2=O)cc1`: the TGI is above 100 µM in assay [1]; above 100 µM in assay [2]; 86.8 µM in assay [3]; above 100 µM in assay [4]; above 100 µM in [5]; above 100 µM in assay [6]. Besides, the TGI in [7], in assay [8], in assay [9] and in [10] was above 100 µM in each case.

`CO[C@]12CC(=O)C3(C(C[C@H]4CC5CC=C6C[C@@H](OC(C)=O)CC[C@]6(OC(C)=O)C5C[C@@]43C)C1)C1C[C@H]3[C@@H]4CC=C5C[C@@H](OC(C)=O)CC[C@]5(OC(C)=O)[C@H]4CC[C@]3(C)C12` (stereo not given in full): the TGI in assay [1] is above 100 µM; in assay [2], above 100 µM; in assay [3], 88.9 µM; in assay [4] it was above 100 µM; in assay [5], 24.4 µM; in assay [6], above 100 µM. Besides, the TGI in [7] was 63.6 µM; in [8], above 100 µM; in [9] it was above 100 µM; in [10], 52.6 µM.

On to `COc1ccc(C2(CC(C)O)SCCCS2)cc1` (stereo not given), for which the TGI in [1], in [2], in [3], in [4], in assay [5] and in assay [6] was above 100 µM each time. The TGI in assay [7], in assay [8], in assay [9] and in assay [10] was above 100 µM in each case.

As for `CC(O)C1CC1(CO)CNc1cc(Cl)nc(N)n1` (stereo not given), the TGI in assay [1], in [2], in [3], in assay [4], in assay [5] and in [6] was above 100 µM each time. Besides, the concentration for total growth inhibition (TGI) in assay [7], in assay [8], in [9] and in assay [10] was above 100 µM each time.
